These results are taken from patent US8318731B2, “Pyrrolopyrimidines” (Janssen Pharmaceutica NV, priority 2007, dated 2012).

Assay [1] concerns the target T1, PLK4 (h) (Homo sapiens, UniProt O00444).
T1 sequence (O00444 1-970): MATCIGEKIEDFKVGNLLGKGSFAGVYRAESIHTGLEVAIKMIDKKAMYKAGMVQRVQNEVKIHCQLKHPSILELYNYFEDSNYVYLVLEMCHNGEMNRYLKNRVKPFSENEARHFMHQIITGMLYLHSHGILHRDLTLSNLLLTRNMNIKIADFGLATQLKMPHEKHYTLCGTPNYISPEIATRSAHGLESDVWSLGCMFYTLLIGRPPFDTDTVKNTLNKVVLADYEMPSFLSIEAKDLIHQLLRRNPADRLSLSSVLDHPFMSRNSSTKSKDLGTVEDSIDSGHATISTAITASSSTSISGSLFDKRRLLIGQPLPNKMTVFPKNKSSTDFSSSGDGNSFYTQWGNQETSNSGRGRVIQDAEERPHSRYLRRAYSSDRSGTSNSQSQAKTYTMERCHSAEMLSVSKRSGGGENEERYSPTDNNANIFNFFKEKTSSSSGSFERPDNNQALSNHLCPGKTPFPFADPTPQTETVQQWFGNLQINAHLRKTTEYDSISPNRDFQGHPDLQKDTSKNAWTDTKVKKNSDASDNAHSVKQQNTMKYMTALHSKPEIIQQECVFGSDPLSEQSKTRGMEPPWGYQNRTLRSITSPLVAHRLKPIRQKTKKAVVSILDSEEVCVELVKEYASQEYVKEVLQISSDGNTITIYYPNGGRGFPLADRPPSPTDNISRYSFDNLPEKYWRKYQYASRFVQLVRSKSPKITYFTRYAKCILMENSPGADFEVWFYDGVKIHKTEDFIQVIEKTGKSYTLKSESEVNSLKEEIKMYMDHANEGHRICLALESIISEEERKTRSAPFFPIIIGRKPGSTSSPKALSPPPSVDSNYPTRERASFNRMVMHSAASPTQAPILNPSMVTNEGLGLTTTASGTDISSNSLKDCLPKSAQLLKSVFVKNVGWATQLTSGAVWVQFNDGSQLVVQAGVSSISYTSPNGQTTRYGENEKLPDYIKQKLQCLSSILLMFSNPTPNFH
Kind of assay: PLK-4 human kinase scintillation proximity assay (SPA). In kind it is biochemical. The following applies: 1 μM ATP, 60 minutes at r.t., read-out: PLK4 pIC50 (converted). As for the experimental part:
The in vitro inhibition of a panel of kinases was assessed using either the scintillation proximity assay (SPA) as described by Cook, N. D. et al., Advances in Experimental Medicine and Biology (1991), 36; p. 525-528.
In the SPA technology the activity of the kinase of interest is measured using an appropriate biotinylated substrate that is incubated with the aforementioned kinase protein in the presence of (^33P) radiolabeled ATP. (^33P) Phosphorylation of the substrate is subsequently measured through binding of the phosphorylated substrate to streptavidine coated beads that are based on the scintillant poly(vinyl toluene) (PVT-Beads). The scintillation intensity is detected by imaging on Leadseeker.
All kinases are pre-diluted to a 10× working concentration prior to addition into the assay. The composition of the dilution buffer for each kinase is detailed below.
In a final reaction volume of 30 μl, PLK4 (h) (19 μg/ml) is incubated with 50 mM Hepes pH 8.0, 10 mM MgCl2, 50 mM NaCl, 1 mM NaF, 1 mM DTT, 10 μM of peptide Biotin-RPRGQRDSSYYWE-OH, 1 μM ATP and 2 nM [γ-^33P-ATP] (6.0 μCi/ml). After incubation of 60 minutes at r.t., the reaction is stopped by addition of 40 μL of stop solution containing 8.7 mM EDTA, BSA 0.17%, 0.17% Triton X-100, 1.7 mg/ml SPA beads (GE-healthcare). The plate is centrifuged and read for Scintillation imaging on Leadseeker.

In assay [2] the test system is MDA-MB-231. Kind of assay: Cellular proliferation assay (Alamar blue), MDA-MB-231. The class given is cell-based. Conditions: Homo sapiens, MDA-MB-231, MDA-MB-231 cells; 10% FCS; 72 h with compound; Alamar blue 24 h; read-out: pIC50 MDA/MB231 (converted). The protocol:
(§1) Cellular proliferation of these compounds was tested on a panel of different cell lines in the presence of 10% FCS serum (37° C. and 5% (v/v) CO2). In a first step these cells were seeded and incubated for 24 hours in the absence of compound. In the second step the cells were incubated for 72 hours with the compounds to be tested for 72 hours. The viable cell number was finally assessed in a standard Alamar blue cell viability assay.
(§2) The viable cell number was assessed by incubation for either 4 h (HCT-116, H1299) 6 h (U87-MG) or 24 h (A2780, PC3, MDA-MB-231) with Alamar blue (Resazurin 9 μg/ml, K-Ferrocyanide 90 μM, K-Ferricyanide 90 μM) and the converted fluorescent product was quantified on a fluorescent plate readed (544 nm/590 nm). Effect of the compounds is calculated as of on control cells.
On the technique in general: Resazurin is reduced to fluorescent resorufin, in cell work by metabolically active cells.

The test system of assay [3] is H1299. Kind of assay: Cellular proliferation assay (Alamar blue), H1299. The class given is cell-based. Conditions: Homo sapiens, NCI-H1299, H1299 cells; 10% FCS; 72 h with compound; Alamar blue 4 h; read-out: pIC50 H1299 (converted). The protocol: as §1, §2
Assay [4] relates to HCT-116. Kind of assay: Cellular proliferation assay (Alamar blue), HCT-116. In kind it is cell-based. Conditions: Homo sapiens; HCT-116 cells; 10% FCS; 72 h with compound; Alamar blue 4 h; read-out: pIC50 HCT-116 (converted). As for the experimental part:
as §1, §2

For assay [5], the system named is A2780. Kind of assay: Cellular proliferation assay (Alamar blue), A2780. The class given is cell-based. The following applies: Homo sapiens, A2780, A2780 cells; 10% FCS; 72 h with compound; Alamar blue 24 h; read-out: pIC50 A2780 (converted). The protocol:
as §1, §2

Assay [6] concerns PC3. Kind of assay: Cellular proliferation assay (Alamar blue), PC3. Conditions: Homo sapiens, PC-3, PC-3 cells; 10% FCS; 72 h with compound; Alamar blue 24 h; read-out: pIC50 PC-3 (converted). In kind it is cell-based. As for the experimental part:
as §1, §2

Some results are limits rather than exact numbers.

With `COc1ccc2cc1CCC(=O)N(C)CCCN(C)Cc1c[nH]c3ncnc(c13)N2` [Compound 55], the IC50 in assay [1] is 794 nM.
On the same count and under the same terms, the same measure for `COc1ccc2cc1CN(C)[C@@H](CC(C)C)C(=O)N(C)CCCc1c[nH]c3ncnc(c13)N2` [Compound 52]: more than 10000 nM.
`CC(C)Oc1ccc2cc1OCC(=O)N(C)CCCN(C)Cc1c[nH]c3ncnc(c13)N2` [Compound 100]: the IC50 in assay [2] is 6.31 µM; in assay [3] it was 631 nM; in assay [4], 1580 nM; in assay [5], 1.58 µM; in assay [1], 50.1 nM; in assay [6], 2 µM.
For `CN1CCCN(C)C(=O)COc2cc(ccc2OCC(=O)NC2CCCC2)Nc2ncnc3[nH]cc(c23)C1` [Compound 91], the IC50 was more than 10 µM in assay [2]; 3160 nM in assay [3]; 1580 nM in assay [4]; 0.794 µM in assay [5]; 25.1 nM in assay [1]; more than 10 µM in assay [6].
Take `CN1CCN(C)C(=O)COc2cc(ccc2N2CCOCC2)Nc2ncnc3[nH]cc(c23)C1` [Compound 97]: the IC50 in assay [2] was more than 10 µM; in assay [3] it was more than 10000 nM; in assay [4], more than 10000 nM; in assay [5], more than 10 µM; in assay [1] it was 794 nM; in assay [6], more than 10 µM.
Consider `CN1CCCN(C)C(=O)COc2cc(ccc2OC2CCOC2)Nc2ncnc3[nH]cc(c23)C1` (centres unmarked) [Compound 135], for which the IC50 in assay [1] was 158 nM.
As to `CN1CCN(c2ccc3cc2OCCCC(=O)N(C)CCN(C)Cc2c[nH]c4ncnc(c24)N3)CC1` [Compound 94], the IC50 in assay [2] was more than 10 µM; in assay [3], more than 10000 nM; in assay [4] it was more than 10000 nM; in assay [5] it was more than 10 µM; in assay [1], 5010 nM; in assay [6], 10 µM.
With `CN1CCCN(C)C(=O)COc2cc(ccc2OC2CCCC2)Nc2ncnc3[nH]cc(c23)C1` [Compound 90], the IC50 in assay [1] was 31.6 nM.
Regarding `CN1CCN(C)C(=O)CCCOc2cc(cc(C(F)(F)F)c2)Nc2ncnc3[nH]cc(c23)C1` [Compound 93], the IC50 in assay [2] was more than 10 µM; in assay [3], 1260 nM; in assay [4], more than 10000 nM; in assay [5], more than 10 µM; in assay [1], 6310 nM; in assay [6], more than 10 µM.
As for `CN1CCCN(C)C(=O)COc2cc(ccc2OCC(=O)N2CCOCC2)Nc2ncnc3[nH]cc(c23)C1` [Compound 117], the IC50 is more than 10 µM in assay [2]; more than 10000 nM in assay [3]; more than 10000 nM in assay [4]; 3.98 µM in assay [5]; 50.1 nM in assay [1]; more than 10 µM in assay [6].
Take `CN1CCCN(C)C(=O)CCCOc2cc(ccc2Cl)Nc2ncnc3[nH]cc(c23)C1` [Compound 43]: the IC50 in assay [1] was 501 nM.
For `COc1ccc2cc1OCC(=O)N[C@H](Cc1ccccc1)CN(C)CCCc1c[nH]c3ncnc(c13)N2` [Compound 39], the IC50 in assay [1] is more than 10000 nM.
Same read-out and setting: under `COc1ccc2cc1OCCCC(=O)NCCCN(C)Cc1c[nH]c3ncnc(c13)N2` [Compound 25] stands 631 nM; under `CN1CCCN(C)C(=O)COc2cc(ccc2OCc2ccccc2)Nc2ncnc3[nH]cc(c23)C1` [Compound 11], 50.1 nM; under `COc1ccc2cc1CN(C)[C@@H](Cc1ccccc1)C(=O)N(C)CCCc1c[nH]c3ncnc(c13)N2` [Compound 51], more than 10000 nM.
On the same count and under the same terms, the same measure for `O=C1CCCOc2cc(ccc2N2CCOCC2)Nc2ncnc3[nH]cc(c23)CN2CCN1CC2` [Compound 110]: 7940 nM.
For the molecule `CN1CCCN(C)C(=O)COc2cc(ccc2OCCOC2CCCC2)Nc2ncnc3[nH]cc(c23)C1` [Compound 99], the IC50 in assay [2] was more than 10 µM; in assay [3], 39.8 nM; in assay [4] it was 63.1 nM; in assay [1] it was 25.1 nM; in assay [6] it was 6.31 µM.
For the molecule `CN1CCCN(C)C(=O)CCCOc2cccc(c2)Nc2ncnc3[nH]cc(c23)C1` [Compound 32], in assay [1], the IC50 is 501 nM.
On to `COc1ccc2cc1CN(C)[C@@H](CO)C(=O)N(C)CCCc1c[nH]c3ncnc(c13)N2` [Compound 9], for which the IC50 in assay [1] was more than 10000 nM.
